{"source": "the supplement of paper PMC8671470"}
{"test_system": "KG-1", "test": "cell viability (% survival relative to DMSO control, bortezomib = 0%); higher = less cytotoxic", "details": "10000 nM; 72 h", "in_short": "(§1)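 In 384-well plates pre-printed with compounds at 1, 10, 100, 1000 or 10000 nM, duplicate wells received cells from 10 AML and 5 CML lines at densities within the linear growth range. The plates stayed at 37 °C with 5% CO2 for 72 h before CellTiter-Glo luminescence was recorded. Each entry is averaged percent survival. Scaling placed vehicle at 100% and a 10 µM positive control at 0%.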", "units": {"cell viability": "%"}}
{"smiles": "COc1cc(/C=C/C(=O)N2CCC=CC2=O)cc(OC)c1OC", "note": "[Piperlongumine]", "cell viability": 4.3}
{"smiles": "O=C(NNc1ccccc1)c1ccncc1", "note": "[PluriSln 1]", "cell viability": 62.8}
{"smiles": "CC(C)c1nc(CN(C)C(=O)N[C@H](C(=O)N[C@@H](Cc2ccccc2)C[C@H](O)[C@H](Cc2ccccc2)NC(=O)OCc2cncs2)C(C)C)cs1", "note": "[Ritonavir]", "cell viability": 71.1}
{"smiles": "C=C(C)[C@H]1Cc2c(ccc3c2O[C@@H]2COc4cc(OC)c(OC)cc4[C@@H]2C3=O)O1", "note": "[Rotenone]", "cell viability": 11.6}
{"smiles": "Oc1ccc(Nc2nc(-c3ccc(Cl)cc3)cs2)cc1", "note": "[SKI II]", "cell viability": 32.7}
{"smiles": "O=C(O)c1cc(N=Nc2ccc(S(=O)(=O)Nc3ccccn3)cc2)ccc1O", "note": "[Sulfasalazine]", "cell viability": 128}
{"test_system": "KU-812", "test": "cell viability (% survival relative to DMSO control, bortezomib = 0%); higher = less cytotoxic", "details": "1 nM; 72 h", "in_short": "as §1", "units": {"cell viability": "%"}}
{"smiles": "CCCCN1C[C@H](O)[C@@H](O)[C@H](O)[C@H]1CO", "note": "[Miglustat]", "cell viability": 87.9}
{"smiles": "C=C(C=NNC(=N)N)NNC(=N)N", "note": "[Mitoguazone]", "cell viability": 105}
{"smiles": "CCCCC/C=C\\C/C=C\\C/C=C\\C/C=C\\CCCCN1C(=O)C=CC1=O", "note": "[N-Arachidonylmaleimide]", "cell viability": 103}
{"smiles": "CCCCCCCCCCC[C@@H](C[C@@H]1OC(=O)[C@H]1CCCCCC)OC(=O)[C@H](CC(C)C)NC=O", "note": "[Orlistat]", "cell viability": 98.3}
{"smiles": "COc1ccc(C(=O)Nc2c(Cl)cncc2Cl)cc1OC1CCCC1", "note": "[Piclamilast]", "cell viability": 91.4}
{"smiles": "COc1cc(/C=C/C(=O)N2CCC=CC2=O)cc(OC)c1OC", "note": "[Piperlongumine]", "cell viability": 94.6}
{"smiles": "O=C(NNc1ccccc1)c1ccncc1", "note": "[PluriSln 1]", "cell viability": 93.3}
{"smiles": "CC(C)c1nc(CN(C)C(=O)N[C@H](C(=O)N[C@@H](Cc2ccccc2)C[C@H](O)[C@H](Cc2ccccc2)NC(=O)OCc2cncs2)C(C)C)cs1", "note": "[Ritonavir]", "cell viability": 109}
{"smiles": "C=C(C)[C@H]1Cc2c(ccc3c2O[C@@H]2COc4cc(OC)c(OC)cc4[C@@H]2C3=O)O1", "note": "[Rotenone]", "cell viability": 87.9}
{"smiles": "Oc1ccc(Nc2nc(-c3ccc(Cl)cc3)cs2)cc1", "note": "[SKI II]", "cell viability": 95.5}
{"smiles": "O=C(O)c1cc(N=Nc2ccc(S(=O)(=O)Nc3ccccn3)cc2)ccc1O", "note": "[Sulfasalazine]", "cell viability": 110}
{"test_system": "KU-812", "test": "cell viability (% survival relative to DMSO control, bortezomib = 0%); higher = less cytotoxic", "details": "10 nM; 72 h", "in_short": "as §1", "units": {"cell viability": "%"}}
{"smiles": "CCCCN1C[C@H](O)[C@@H](O)[C@H](O)[C@H]1CO", "note": "[Miglustat]", "cell viability": 94.6}
{"smiles": "C=C(C=NNC(=N)N)NNC(=N)N", "note": "[Mitoguazone]", "cell viability": 107}
{"smiles": "CCCCC/C=C\\C/C=C\\C/C=C\\C/C=C\\CCCCN1C(=O)C=CC1=O", "note": "[N-Arachidonylmaleimide]", "cell viability": 97.9}
{"smiles": "CCCCCCCCCCC[C@@H](C[C@@H]1OC(=O)[C@H]1CCCCCC)OC(=O)[C@H](CC(C)C)NC=O", "note": "[Orlistat]", "cell viability": 92.1}
{"smiles": "COc1ccc(C(=O)Nc2c(Cl)cncc2Cl)cc1OC1CCCC1", "note": "[Piclamilast]", "cell viability": 94.6}
{"smiles": "COc1cc(/C=C/C(=O)N2CCC=CC2=O)cc(OC)c1OC", "note": "[Piperlongumine]", "cell viability": 110}
{"smiles": "O=C(NNc1ccccc1)c1ccncc1", "note": "[PluriSln 1]", "cell viability": 93.8}
{"smiles": "CC(C)c1nc(CN(C)C(=O)N[C@H](C(=O)N[C@@H](Cc2ccccc2)C[C@H](O)[C@H](Cc2ccccc2)NC(=O)OCc2cncs2)C(C)C)cs1", "note": "[Ritonavir]", "cell viability": 95.1}
{"smiles": "C=C(C)[C@H]1Cc2c(ccc3c2O[C@@H]2COc4cc(OC)c(OC)cc4[C@@H]2C3=O)O1", "note": "[Rotenone]", "cell viability": 65.9}
{"smiles": "Oc1ccc(Nc2nc(-c3ccc(Cl)cc3)cs2)cc1", "note": "[SKI II]", "cell viability": 101}
{"smiles": "O=C(O)c1cc(N=Nc2ccc(S(=O)(=O)Nc3ccccn3)cc2)ccc1O", "note": "[Sulfasalazine]", "cell viability": 98.2}
{"test_system": "KU-812", "test": "cell viability (% survival relative to DMSO control, bortezomib = 0%); higher = less cytotoxic", "details": "100 nM; 72 h", "in_short": "as §1", "units": {"cell viability": "%"}}
{"smiles": "CCCCN1C[C@H](O)[C@@H](O)[C@H](O)[C@H]1CO", "note": "[Miglustat]", "cell viability": 89.5}
{"smiles": "C=C(C=NNC(=N)N)NNC(=N)N", "note": "[Mitoguazone]", "cell viability": 96.5}
{"smiles": "CCCCC/C=C\\C/C=C\\C/C=C\\C/C=C\\CCCCN1C(=O)C=CC1=O", "note": "[N-Arachidonylmaleimide]", "cell viability": 94.6}
{"smiles": "CCCCCCCCCCC[C@@H](C[C@@H]1OC(=O)[C@H]1CCCCCC)OC(=O)[C@H](CC(C)C)NC=O", "note": "[Orlistat]", "cell viability": 96.4}
{"smiles": "COc1ccc(C(=O)Nc2c(Cl)cncc2Cl)cc1OC1CCCC1", "note": "[Piclamilast]", "cell viability": 90}
{"smiles": "COc1cc(/C=C/C(=O)N2CCC=CC2=O)cc(OC)c1OC", "note": "[Piperlongumine]", "cell viability": 94.9}
{"smiles": "O=C(NNc1ccccc1)c1ccncc1", "note": "[PluriSln 1]", "cell viability": 93.2}
{"smiles": "CC(C)c1nc(CN(C)C(=O)N[C@H](C(=O)N[C@@H](Cc2ccccc2)C[C@H](O)[C@H](Cc2ccccc2)NC(=O)OCc2cncs2)C(C)C)cs1", "note": "[Ritonavir]", "cell viability": 102}
{"smiles": "C=C(C)[C@H]1Cc2c(ccc3c2O[C@@H]2COc4cc(OC)c(OC)cc4[C@@H]2C3=O)O1", "note": "[Rotenone]", "cell viability": 16.6}
{"smiles": "Oc1ccc(Nc2nc(-c3ccc(Cl)cc3)cs2)cc1", "note": "[SKI II]", "cell viability": 106}
{"smiles": "O=C(O)c1cc(N=Nc2ccc(S(=O)(=O)Nc3ccccn3)cc2)ccc1O", "note": "[Sulfasalazine]", "cell viability": 107}
{"test_system": "KU-812", "test": "cell viability (% survival relative to DMSO control, bortezomib = 0%); higher = less cytotoxic", "details": "1000 nM; 72 h", "in_short": "as §1", "units": {"cell viability": "%"}}
{"smiles": "CCCCN1C[C@H](O)[C@@H](O)[C@H](O)[C@H]1CO", "note": "[Miglustat]", "cell viability": 105}
{"smiles": "C=C(C=NNC(=N)N)NNC(=N)N", "note": "[Mitoguazone]", "cell viability": 83}
{"smiles": "CCCCC/C=C\\C/C=C\\C/C=C\\C/C=C\\CCCCN1C(=O)C=CC1=O", "note": "[N-Arachidonylmaleimide]", "cell viability": 97.2}
{"smiles": "CCCCCCCCCCC[C@@H](C[C@@H]1OC(=O)[C@H]1CCCCCC)OC(=O)[C@H](CC(C)C)NC=O", "note": "[Orlistat]", "cell viability": 98.5}
{"smiles": "COc1ccc(C(=O)Nc2c(Cl)cncc2Cl)cc1OC1CCCC1", "note": "[Piclamilast]", "cell viability": 105}
{"smiles": "COc1cc(/C=C/C(=O)N2CCC=CC2=O)cc(OC)c1OC", "note": "[Piperlongumine]", "cell viability": 92.2}
{"smiles": "O=C(NNc1ccccc1)c1ccncc1", "note": "[PluriSln 1]", "cell viability": 102}
{"smiles": "CC(C)c1nc(CN(C)C(=O)N[C@H](C(=O)N[C@@H](Cc2ccccc2)C[C@H](O)[C@H](Cc2ccccc2)NC(=O)OCc2cncs2)C(C)C)cs1", "note": "[Ritonavir]", "cell viability": 95.9}
{"smiles": "C=C(C)[C@H]1Cc2c(ccc3c2O[C@@H]2COc4cc(OC)c(OC)cc4[C@@H]2C3=O)O1", "note": "[Rotenone]", "cell viability": 3.5}
{"smiles": "Oc1ccc(Nc2nc(-c3ccc(Cl)cc3)cs2)cc1", "note": "[SKI II]", "cell viability": 90.8}
{"smiles": "O=C(O)c1cc(N=Nc2ccc(S(=O)(=O)Nc3ccccn3)cc2)ccc1O", "note": "[Sulfasalazine]", "cell viability": 108}
{"test_system": "KU-812", "test": "cell viability (% survival relative to DMSO control, bortezomib = 0%); higher = less cytotoxic", "details": "10000 nM; 72 h", "in_short": "as §1", "units": {"cell viability": "%"}}
{"smiles": "CCCCN1C[C@H](O)[C@@H](O)[C@H](O)[C@H]1CO", "note": "[Miglustat]", "cell viability": 86.7}
{"smiles": "C=C(C=NNC(=N)N)NNC(=N)N", "note": "[Mitoguazone]", "cell viability": 30.6}
{"smiles": "CCCCC/C=C\\C/C=C\\C/C=C\\C/C=C\\CCCCN1C(=O)C=CC1=O", "note": "[N-Arachidonylmaleimide]", "cell viability": 91.4}
{"smiles": "CCCCCCCCCCC[C@@H](C[C@@H]1OC(=O)[C@H]1CCCCCC)OC(=O)[C@H](CC(C)C)NC=O", "note": "[Orlistat]", "cell viability": 89.6}
{"smiles": "COc1ccc(C(=O)Nc2c(Cl)cncc2Cl)cc1OC1CCCC1", "note": "[Piclamilast]", "cell viability": 99.1}
{"smiles": "COc1cc(/C=C/C(=O)N2CCC=CC2=O)cc(OC)c1OC", "note": "[Piperlongumine]", "cell viability": 3.51}
{"smiles": "O=C(NNc1ccccc1)c1ccncc1", "note": "[PluriSln 1]", "cell viability": 92.5}
{"smiles": "CC(C)c1nc(CN(C)C(=O)N[C@H](C(=O)N[C@@H](Cc2ccccc2)C[C@H](O)[C@H](Cc2ccccc2)NC(=O)OCc2cncs2)C(C)C)cs1", "note": "[Ritonavir]", "cell viability": 78.8}
{"smiles": "C=C(C)[C@H]1Cc2c(ccc3c2O[C@@H]2COc4cc(OC)c(OC)cc4[C@@H]2C3=O)O1", "note": "[Rotenone]", "cell viability": 2.89}
{"smiles": "Oc1ccc(Nc2nc(-c3ccc(Cl)cc3)cs2)cc1", "note": "[SKI II]", "cell viability": 20.6}
{"smiles": "O=C(O)c1cc(N=Nc2ccc(S(=O)(=O)Nc3ccccn3)cc2)ccc1O", "note": "[Sulfasalazine]", "cell viability": 102}
